What all share (assay): microbe, parasite or virus in culture
Format in all cases: functional

Assay [1] relates to Listeria monocytogenes. The conditions noted are these: ATCC 7644, time 48 hrs.
Description: Antibiofilm activity against Listeria monocytogenes ATCC 7644 assessed as inhibition of bacterial metabolism within the biofilm at 8 ug/ml measured after 48 hrs by MTT assay relative to control
Assay [2] concerns Staphylococcus aureus. The settings on record: ATCC 25923, time 48 hrs.
Description: Antibiofilm activity against Staphylococcus aureus ATCC 25923 assessed as inhibition of bacterial metabolism within the biofilm at 8 ug/ml measured after 48 hrs by MTT assay relative to control
For assay [3], the system named is Escherichia coli. The conditions noted are these: DSM 8579, time 48 hrs.
Description: Antibiofilm activity against Escherichia coli DSM 8579 assessed as inhibition of bacterial metabolism within the biofilm at 80 ug/ml measured after 48 hrs by MTT assay relative to control
In assay [4] the test system is Pseudomonas aeruginosa. The settings on record: ATCC 50071, time 48 hrs.
Description: Antibiofilm activity against Pseudomonas aeruginosa ATCC 50071 assessed as inhibition of bacterial metabolism within the biofilm at 8 ug/ml measured after 48 hrs by MTT assay relative to control
Assay [5] deals with Escherichia coli. The settings on record: DSM 8579, time 48 hrs. The source holds these as a separate data set.
Description: Antibiofilm activity against Escherichia coli DSM 8579 assessed as inhibition of biofilm formation at 80 ug/ml measured after 48 hrs by crystal violet staining based assay relative to control
The subject of assay [6] is Pseudomonas aeruginosa. The settings on record: ATCC 50071, time 48 hrs. This is another data set of the same source.
Description: Antibiofilm activity against Pseudomonas aeruginosa ATCC 50071 assessed as inhibition of biofilm formation at 4 ug/ml measured after 48 hrs by crystal violet staining based assay relative to control
For assay [7], the system named is Listeria monocytogenes. The settings on record: ATCC 7644, time 48 hrs. This is another data set of the same source.
Description: Antibiofilm activity against Listeria monocytogenes ATCC 7644 assessed as inhibition of bacterial metabolism within the biofilm at 4 ug/ml measured after 48 hrs by MTT assay relative to control
In assay [8] the test system is Staphylococcus aureus. The settings on record: ATCC 25923, time 48 hrs. This is another data set of the same source.
Description: Antibiofilm activity against Staphylococcus aureus ATCC 25923 assessed as inhibition of biofilm formation at 8 ug/ml measured after 48 hrs by crystal violet staining based assay relative to control
Assay [9] concerns Pseudomonas aeruginosa. The settings on record: ATCC 50071, time 48 hrs. This is another data set of the same source.
Description: Antibiofilm activity against Pseudomonas aeruginosa ATCC 50071 assessed as inhibition of bacterial metabolism within the biofilm at 4 ug/ml measured after 48 hrs by MTT assay relative to control
In assay [10] the test system is Staphylococcus aureus. The settings on record: ATCC 25923, time 48 hrs. The source holds these as a separate data set.
Description: Antibiofilm activity against Staphylococcus aureus ATCC 25923 assessed as inhibition of biofilm formation at 4 ug/ml measured after 48 hrs by crystal violet staining based assay relative to control
Assay [11] concerns Listeria monocytogenes. The settings on record: ATCC 7644, time 48 hrs. This is another data set of the same source.
Description: Antibiofilm activity against Listeria monocytogenes ATCC 7644 assessed as inhibition of biofilm formation at 4 ug/ml measured after 48 hrs by crystal violet staining based assay relative to control
Assay [12] has as its system Staphylococcus aureus. The settings on record: ATCC 25923, time 48 hrs. This is another data set of the same source.
Description: Antibiofilm activity against Staphylococcus aureus ATCC 25923 assessed as inhibition of bacterial metabolism within the biofilm at 4 ug/ml measured after 48 hrs by MTT assay relative to control
Assay [13] concerns Escherichia coli. The settings on record: DSM 8579, time 48 hrs. This is another data set of the same source.
Description: Antibiofilm activity against Escherichia coli DSM 8579 assessed as inhibition of bacterial metabolism within the biofilm at 40 ug/ml measured after 48 hrs by MTT assay relative to control
Assay [14] concerns Pseudomonas aeruginosa. The conditions noted are these: ATCC 50071, time 48 hrs. The source holds these as a separate data set.
Description: Antibiofilm activity against Pseudomonas aeruginosa ATCC 50071 assessed as inhibition of biofilm formation at 8 ug/ml measured after 48 hrs by crystal violet staining based assay relative to control
Assay [15] deals with Listeria monocytogenes. The settings on record: ATCC 7644, time 48 hrs. The source holds these as a separate data set.
Description: Antibiofilm activity against Listeria monocytogenes ATCC 7644 assessed as inhibition of biofilm formation at 8 ug/ml measured after 48 hrs by crystal violet staining based assay relative to control
Assay [16] concerns Escherichia coli. The conditions noted are these: DSM 8579, time 48 hrs. The source holds these as a separate data set.
Description: Antibiofilm activity against Escherichia coli DSM 8579 assessed as inhibition of biofilm formation at 40 ug/ml measured after 48 hrs by crystal violet staining based assay relative to control

Take `COc1c(C(C)C)cc2c(c1O)[C@@]1(C(=O)O)CCCC(C)(C)[C@@H]1CC2`: the inhibition (usually the drop in the measured response relative to a control, in per cent) at 8 µg/mL with Listeria monocytogenes [1] amounted to 6.7%; in the assay with Staphylococcus aureus [2], 0%; in the assay on Pseudomonas aeruginosa [4], 71.6%; in the assay on Staphylococcus aureus [8], 72%; with Pseudomonas aeruginosa [14], 81.2%; in the assay with Listeria monocytogenes [15], 81%. Further, the inhibition at 80 µg/mL in the assay on Escherichia coli [3] stood at 96.1%; in the assay on Escherichia coli [5], 66.3%. Further, the inhibition at 4 µg/mL amounted to 68.6% in the assay with Pseudomonas aeruginosa [6]; 4% in the assay on Listeria monocytogenes [7]; 43.2% with Pseudomonas aeruginosa [9]; 31.9% in the assay on Staphylococcus aureus [10]; 74.1% in the assay with Listeria monocytogenes [11]; 0% in the assay with Staphylococcus aureus [12]. The inhibition at 40 µg/mL in the assay with Escherichia coli [13] turned out to be 67.2%; with Escherichia coli [16], 3.2%.

With `CO[C@H]1c2cc(C(C)C)c(O)c(O)c2[C@@]23CCCC(C)(C)[C@@H]2[C@@H]1OC3=O`, the inhibition at 8 µg/mL in the assay with Listeria monocytogenes [1] was determined as 29.8%; in the assay on Staphylococcus aureus [2], 22.9%; with Pseudomonas aeruginosa [4], 30.9%; in the assay on Staphylococcus aureus [8] it was 63.3%; in the assay with Pseudomonas aeruginosa [14], 84.7%; in the assay with Listeria monocytogenes [15] it was 23.8%. For the same molecule, the inhibition at 80 µg/mL in the assay on Escherichia coli [3] turned out to be 27.3%; in the assay with Escherichia coli [5], 47.4%. Also, the inhibition at 4 µg/mL in the assay with Pseudomonas aeruginosa [6] was 14.7%; in the assay with Listeria monocytogenes [7] it was 0%; in the assay with Pseudomonas aeruginosa [9], 3.1%; in the assay on Staphylococcus aureus [10], 23.5%; in the assay on Listeria monocytogenes [11] it was 16.2%; in the assay on Staphylococcus aureus [12], 9.4%. The inhibition at 40 µg/mL was 0% with Escherichia coli [13] and 32.9% with Escherichia coli [16].

Regarding `CC1(C)C[C@H](O)[C@]23CC[C@@H](O)[C@](C)(CC[C@@H]12)C3`, the inhibition at 8 µg/mL came to 17.8% with Listeria monocytogenes [1]; 0% in the assay on Staphylococcus aureus [2]; 40% in the assay with Pseudomonas aeruginosa [4]; 0% with Staphylococcus aureus [8]; 40% in the assay with Pseudomonas aeruginosa [14]; 17.8% with Listeria monocytogenes [15]. Also, the inhibition at 80 µg/mL in the assay with Escherichia coli [3] was 37.5%; with Escherichia coli [5] it was 45.4%. Also, the inhibition at 4 µg/mL was determined as 39.8% with Pseudomonas aeruginosa [6]; 8.7% with Listeria monocytogenes [7]; 39.8% in the assay with Pseudomonas aeruginosa [9]; 0% in the assay on Staphylococcus aureus [10]; 8.7% in the assay on Listeria monocytogenes [11]; 0% with Staphylococcus aureus [12]. The inhibition at 40 µg/mL in the assay with Escherichia coli [13] was found to be 1.6%; with Escherichia coli [16] it was 3.2%.

Turning to `C=C1CC/C=C(/C)[C@H](O)C[C@@H]2[C@@H]1CC2(C)CO` (stereo partly specified), the inhibition at 8 µg/mL stood at 36.8% in the assay with Listeria monocytogenes [1]; 31.1% in the assay on Staphylococcus aureus [2]; 43.1% in the assay with Pseudomonas aeruginosa [4]; 34.9% in the assay with Staphylococcus aureus [8]; 34.3% in the assay on Pseudomonas aeruginosa [14]; 51.1% with Listeria monocytogenes [15]. Also, the inhibition at 80 µg/mL in the assay with Escherichia coli [3] was found to be 45.4%; with Escherichia coli [5], 43.1%. Further, the inhibition at 4 µg/mL with Pseudomonas aeruginosa [6] was 18.2%; with Listeria monocytogenes [7] it was 22.4%; with Pseudomonas aeruginosa [9], 27.4%; in the assay on Staphylococcus aureus [10], 0%; in the assay with Listeria monocytogenes [11], 13.7%; in the assay with Staphylococcus aureus [12], 27.7%. Also, the inhibition at 40 µg/mL in the assay on Escherichia coli [13] was 13.9%; with Escherichia coli [16], 27.4%.

Take `CC(=O)O[C@H]1CC(C)(C)[C@@H]2CC[C@]3(C)C[C@]12CC[C@H]3O`: the inhibition at 8 µg/mL came to 29.4% in the assay with Listeria monocytogenes [1]; 4.7% with Staphylococcus aureus [2]; 45.9% in the assay with Pseudomonas aeruginosa [4]; 16.4% in the assay on Staphylococcus aureus [8]; 45.9% with Pseudomonas aeruginosa [14]; 23.3% in the assay with Listeria monocytogenes [15]. Also, the results for the inhibition at 80 µg/mL with Escherichia coli [3] and in the assay with Escherichia coli [5] were 42% and 29.6%, respectively. Moreover, the inhibition at 4 µg/mL with Pseudomonas aeruginosa [6] worked out at 15.2%; in the assay with Listeria monocytogenes [7] it was 20.6%; with Pseudomonas aeruginosa [9], 30.4%; with Staphylococcus aureus [10], 3.2%; in the assay on Listeria monocytogenes [11] it was 14.6%; with Staphylococcus aureus [12] it was 0%. Besides, the inhibition at 40 µg/mL in the assay with Escherichia coli [13] and in the assay with Escherichia coli [16] was 0% in each case.

As to `CC1(C)C[C@H]2[C@H]1CC[C@@]1(C)C[C@@]2(O)CC[C@@H]1O`, the inhibition at 8 µg/mL in the assay on Listeria monocytogenes [1] came out at 23.9%; in the assay on Staphylococcus aureus [2] it was 0%; in the assay on Pseudomonas aeruginosa [4], 4%; in the assay on Staphylococcus aureus [8] it was 0%; with Pseudomonas aeruginosa [14], 4%; in the assay on Listeria monocytogenes [15] it was 38.7%. Also, the inhibition at 80 µg/mL was found to be 18.2% in the assay with Escherichia coli [3] and 23.9% in the assay with Escherichia coli [5]. Moreover, the inhibition at 4 µg/mL with Pseudomonas aeruginosa [6] was 0%; with Listeria monocytogenes [7], 0%; in the assay on Pseudomonas aeruginosa [9], 0%; in the assay with Staphylococcus aureus [10], 0%; with Listeria monocytogenes [11], 14.8%; in the assay on Staphylococcus aureus [12], 0%. For the same molecule, the inhibition at 40 µg/mL in the assay on Escherichia coli [13] and in the assay with Escherichia coli [16] was 0% in each case.

As for `CC1(C)C[C@H]2[C@H]1CC[C@]1(C)C[C@]2(O)CC[C@@H]1O`, the inhibition at 8 µg/mL with Listeria monocytogenes [1] was found to be 42.2%; in the assay on Staphylococcus aureus [2], 48.6%; with Pseudomonas aeruginosa [4], 24.6%; with Staphylococcus aureus [8] it was 17.9%; in the assay on Pseudomonas aeruginosa [14], 53.6%; in the assay on Listeria monocytogenes [15] it was 25.7%. Also, the inhibition at 80 µg/mL was 57.8% in the assay with Escherichia coli [3] and 71.9% in the assay on Escherichia coli [5]. Moreover, the inhibition at 4 µg/mL with Pseudomonas aeruginosa [6] is 42.4%; with Listeria monocytogenes [7], 31.1%; with Pseudomonas aeruginosa [9], 0%; with Staphylococcus aureus [10], 0%; with Listeria monocytogenes [11], 8.7%; in the assay on Staphylococcus aureus [12] it was 33.3%. Also, the inhibition at 40 µg/mL with Escherichia coli [13] came out at 38.3%; in the assay on Escherichia coli [16] it was 24.3%.

Take `C=CC(C)(O)C/C=C/C(C)(C)O` (stereo unspecified): the inhibition at 8 µg/mL was determined as 38.1% in the assay on Listeria monocytogenes [1]; 44.4% in the assay with Staphylococcus aureus [2]; 71.3% in the assay on Pseudomonas aeruginosa [4]; 40.7% in the assay on Staphylococcus aureus [8]; 84.7% in the assay with Pseudomonas aeruginosa [14]; 85% with Listeria monocytogenes [15]. In addition, the inhibition at 80 µg/mL in the assay on Escherichia coli [3] came to 64%; in the assay on Escherichia coli [5], 78.6%. Further, the inhibition at 4 µg/mL came to 75.9% with Pseudomonas aeruginosa [6]; 9.1% in the assay on Listeria monocytogenes [7]; 68.1% in the assay with Pseudomonas aeruginosa [9]; 13.3% in the assay with Staphylococcus aureus [10]; 78% in the assay with Listeria monocytogenes [11]; 42.2% in the assay with Staphylococcus aureus [12]. The values for the inhibition at 40 µg/mL in the assay on Escherichia coli [13] and in the assay with Escherichia coli [16] were 52% and 30.4%, respectively.

For the molecule `CC1(C)C[C@@H](O)C[C@](C)(O)/C1=C\C(=O)O`, the inhibition at 8 µg/mL with Listeria monocytogenes [1] is 33.3%; in the assay on Staphylococcus aureus [2] it was 49.3%; in the assay with Pseudomonas aeruginosa [4] it was 35.7%; with Staphylococcus aureus [8] it was 31.5%; in the assay on Pseudomonas aeruginosa [14] it was 55.5%; with Listeria monocytogenes [15], 10.2%. Besides, the inhibition at 80 µg/mL with Escherichia coli [3] turned out to be 38.6%; in the assay with Escherichia coli [5], 50.3%. Moreover, the inhibition at 4 µg/mL in the assay on Pseudomonas aeruginosa [6] stood at 0%; with Listeria monocytogenes [7], 13.1%; with Pseudomonas aeruginosa [9] it was 29.2%; in the assay on Staphylococcus aureus [10] it was 12.6%; in the assay on Listeria monocytogenes [11] it was 0%; in the assay with Staphylococcus aureus [12] it was 44.7%. Moreover, the results for the inhibition at 40 µg/mL in the assay with Escherichia coli [13] and in the assay on Escherichia coli [16] were 14.2% and 28.6%, respectively.

Turning to `COc1c(C(C)C)cc2c(c1O)[C@]1(C(=O)O)CCCC(C)(C)[C@@H]1CC2` (relative stereo), the inhibition at 8 µg/mL in the assay on Listeria monocytogenes [1] was found to be 17.8%; with Staphylococcus aureus [2], 8%; with Pseudomonas aeruginosa [4], 46.8%; in the assay with Staphylococcus aureus [8] it was 8%; in the assay on Pseudomonas aeruginosa [14] it was 46.8%; in the assay on Listeria monocytogenes [15], 17.8%. Besides, the inhibition at 80 µg/mL with Escherichia coli [3] turned out to be 89.1%; with Escherichia coli [5], 92.8%. For the same molecule, the inhibition at 4 µg/mL in the assay on Pseudomonas aeruginosa [6] was determined as 27.2%; with Listeria monocytogenes [7], 6.5%; in the assay with Pseudomonas aeruginosa [9] it was 27.2%; in the assay on Staphylococcus aureus [10], 0%; in the assay with Listeria monocytogenes [11], 6.5%; with Staphylococcus aureus [12], 0%. Further, the figures for the inhibition at 40 µg/mL with Escherichia coli [13] and with Escherichia coli [16] were 46.3% and 92.6%, respectively.

For the molecule `C=C(C)[C@@H]1CC[C@]2(C(=O)O)CC[C@]3(C)[C@H](CC[C@@H]4[C@@]5(C)CC[C@H](O)C(C)(C)[C@@H]5CC[C@]43C)[C@@H]12` [BETULINIC ACID], the inhibition at 8 µg/mL in the assay with Listeria monocytogenes [1] is 18.7%; in the assay with Staphylococcus aureus [2], 14%; with Pseudomonas aeruginosa [4] it was 72.2%; with Staphylococcus aureus [8] it was 75.2%; in the assay on Pseudomonas aeruginosa [14] it was 63.4%; in the assay with Listeria monocytogenes [15] it was 80.4%. The inhibition at 80 µg/mL with Escherichia coli [3] stood at 22.6%; with Escherichia coli [5], 54.4%. Also, the inhibition at 4 µg/mL in the assay with Pseudomonas aeruginosa [6] was 38%; in the assay on Listeria monocytogenes [7], 12.7%; in the assay with Pseudomonas aeruginosa [9], 31.9%; in the assay with Staphylococcus aureus [10], 30.7%; in the assay with Listeria monocytogenes [11] it was 75.6%; in the assay with Staphylococcus aureus [12] it was 0%. Further, the inhibition at 40 µg/mL in the assay on Escherichia coli [13] came out at 15%; in the assay on Escherichia coli [16], 33.4%.

(Values after ChEMBL document CHEMBL4813932, “Terpenoid Constituents of Perovskia artemisioides Aerial Parts with Inhibitory Effects on Bacterial Biofilm Growth” (2021).)
